These are literature values, as cited in US10231936B2, “Delayed release pharmaceutical formulations” (Euro-Celtique S.A., priority 2000, dated 2019).

Counter-ions that a name gives are not always drawn. Like-named read-outs stand apart in the source and are kept apart here.

For data set [1] the following is noted: spheroids in capsules.
The conditions of data set [2]: by mouth.
For data set [3] the following is noted: conventional normal release dosage form.

Turning to `CCCC1O[C@@H]2C[C@H]3[C@@H]4CCC5=CC(=O)C=C[C@]5(C)[C@H]4[C@@H](O)C[C@]3(C)[C@]2(C(=O)CO)O1` (stereo partly drawn) [Budesonide], the “total absorbed Budesonide absorbed in the ileum and ascending colon” value in data set [1] (fasting healthy subjects) is given as 68%; in data set [1] (fed healthy subjects), 69%. Turning to `CCC(=O)O[C@]1(C(=O)SCF)[C@H](C)C[C@H]2[C@@H]3C[C@H](F)C4=CC(=O)C=C[C@]4(C)[C@@]3(F)[C@@H](O)C[C@@]21C` [Fluticasone, Fluticasone Propionate], the bioavailability entry in data set [2] is “low bioavailability”. Regarding `C[C@]12C=CC(=O)C=C1CC[C@@H]1[C@@H]2[C@@H](O)C[C@@]2(C)[C@H]1CC[C@]2(O)C(=O)COC(=O)c1cccc(S(=O)(=O)[O-])c1.[Na+]` [PSMB, Prednisolone sodium metasulphobenzoate], the bioavailability result in data set [2] was “very low bioavailability”. Turning to `Cc1ccc(-c2nc3ccc(C)cn3c2CC(=O)N(C)C)cc1` [Zolpidem tartrate], in data set [3], the elimination half-life was approximately 2 h. Take `CN1CCN(C(=O)OC2c3nccnc3C(=O)N2c2ccc(Cl)cn2)CC1` (stereo not drawn) [Zopiclone]: the elimination half-life in data set [3] is approximately 2 h.
